# Test results: US6300501A, “Histidine-(N-benzyl glycinamide) inhibitors of protein farnesyl transferase” (Warner-Lambert Company, priority 1998, dated 2001)
# Where two headings read alike, the source gives them in different places.
# Experiments:
# [1] = test system: ras farnesylation in ras-transformed cells; experiment: Gel shift assay; format: cell-based; conditions: ras-transformed cells, 18-hour incubation; read-out: Gel Shift (μM) MED (minimal effective dose to observe inhibition of ras farnesylation)
# Description: Twenty-four hours after planting 2×10^6 ras-transformed cells per treatment condition, the farnesylation inhibitor is added at varying concentrations. Following an 18-hour incubation period, cells are lysed in phosphate-buffered saline containing 1% Triton X-100, 0.5% sodium deoxycholate, and 0.1% SDS (sodium dodecyl sulfate), pH 7.4 in the presence of several protease inhibitors (PMSF (phenylmethylsulfonylfluoride), antipain, leupeptin, pepstatin A, and aprotinin all at 1 μg/mL). Ras protein is immunoprecipitated from the supernatants by the addition of 3 μg v-H-ras Ab-2 (Y13-259 antibody from Oncogene Science). After overnight immunoprecipitation, 30 μL of a 50% protein G-Sepharose slurry (Pharmacia) is added followed by 45-minute incubation. Pellets are resuspended in 2× tris-glycine loading buffer (Novex) containing 5% β-mercaptoethanol and then denatured by 5 minutes boiling prior to electrophoresis on 14% Tris-glycine SDS gels. Using Western transfer techniques, proteins are transferred to nitrocellulose membranes followed by blocking in blocking buffer. Upon overnight incubation with primary antibody (pan-ras Ab-2 from Oncogene Science), an antimouse HRP (horse radish peroxidase) conjugate secondary antibody (Amersham) is employed for detection of the ras protein. Blots are developed using ECL(enhanced chemiluminescence) techniques (Amersham).
# [2] = biological target: T1, SF9 affinity purified rat farnesyl protein transferase (Rattus norvegicus, UniProt Q02293+Q04631); experiment: PFT inhibitory activity (radiolabeled farnesyl pyrophosphate, streptavidin bead assay); format: biochemical
# T1 construct: made in house; host or cells: Sf9 insect cells (baculovirus system inferred from b7)
# Description: The protein:farnesyl transferase (PFT) or farnesyl protein transferase (FPT) inhibitory activity of compounds of the present invention were assayed in HEPES buffer (pH 7.4) containing 5 mM potassium phosphate and 20 μM ZnCl2. The solution also contained 5 mM DTT (dithiothreitol), 5 mM MgCl2, and 0.1% PEG 8000. Assays were performed in 96 well plates (Wallec) and employed solutions composed of varying concentrations of a compound of the present invention in 100% DMSO (dimethylsulfoxide). Upon addition of both substrates, radiolabeled farnesyl pyrophosphate ([1^3 H], specific activity 15-30 Ci/mmol, final concentration 134 nM) and (biotinyl)-Ahe-Thr-Lys-Cys-Val-Ile-Met ([3aS[3a alpha, 4 beta, 6a alpha]-hexahydro-2-oxo-1H-thieno[3,4-d]imidazole-5-pentanoic acid]-[7-aminoheptanoic acid]-Thr-Lys-Cys-Val-Ile-Met) (Ahe is 7-aminoheptanoic acid, Thr is threonine, Lys is lysine, Cys is cysteine, Val is valine, Ile is isoleucine and Met is methionine) (final concentration 0.2 μM), the enzyme reaction was started by addition of SF9 affinity purified rat farnesyl protein transferase. After incubation at 30° C. for 30 minutes, the reaction was terminated by diluting the reaction 2.5-fold with a stop buffer containing 1.5 M magnesium acetate, 0.2 M H3 PO4, 0.5% BSA (bovine serum albumin), and strepavidin beads (Amersham) at a concentration of 1.3 mg/mL. After allowing the plate to settle for 30 minutes at room temperature, radioactivity was quantitated on a microBeta counter (Model 1450, Wallec). The assay was also carried out without 5 mM potassium phosphate.
# [3] = test system: H61 cells: NIH transformed 3T3 H-ras cells; experiment: Clonogenic assay (6 well plates, soft agar); format: cell-based; conditions: 312 h, colonies counted after Day 13, read-out: Clonogenic Assay IC50
# Description: Clonoaenic Assay (6 well lates)
# Sometime previous to setting up an actual test:
# 1. Make up 1.5% Bacto Agar in Milli-Q water and autoclave.
# 2. Make up 500 mL 2× DMEM-HG without phenol red by combining the following:
# 1 bottle DMEM base powder (Sigma D-5030)
# Adjust pH to 7.1 with HCL; filter sterilize.
# 1. Set up makeshift water bath (beaker of water with thermometer, on hot plate) in the hood. Keep water temperature between 37° C. to 43° C.
# 2. […] 1.5% Bacto Agar for approximately 2 minutes on high, or until completely melted. Then let it cool somewhat before using it. (You can keep it from resolidifying by setting the bottle on the hot plate.) […]
# 3. Bottom Layer (0.6% agar) Top Layer (0.3% agar)
# 20% calf serum 20% calf serum
# 40% Bacto Agar (1.5%) 20% Bacto Agar (1.5%)
# Depending on the volume of each layer needed, use either 50 mL conical tubes or 200 mL turnip tubes which can be floated in the "water bath".
# 4. Add 1 mL of bottom layer agar/medium to each well: deliver 1 mL warm agar/medium to a well; then using the tip of the pipet, spread the agar/medium around to completely cover the bottom. Repeat with next well.
# 5. Allow the plates to set at room temperature for about 5 minutes until the bottom layer solidifies.
# 6. Label sterile Falcon 2054 (12×75 mm) tubes and add appropriate volume of drug solutions into them.
# 7. Aliquot 4 AL of DMSO or drug solution per 1 mL of agar/medium to appropriate tubes; then add the agar/medium/cells to each tube. Always add 1 mL more than will actually be needed. Mix up and down in the pipet (gently); then deliver 1 mL to the center of each well. The upper layer is less viscous, so it will generally spread out over the bottom layer unaided. If necessary, rotate the plane of the plate gently to spread the top layer evenly over the bottom layer.
# 8. Let plates set for 5 or 10 minutes at room temperature to solidify, then put into 5% CO2, 37° C. incubator.
# 9. On Day 13, add 0.5 mL of INT (tetrazolium 1 mg/mL in Milli-Q H2 O, filter sterilized) and return plates to incubator.
# [4] = HEPES buffer pH 7.4, without 5 mM potassium phosphate, read-out: IC50 (μM) Hepes
# [5] = HEPES buffer pH 7.4 containing 5 mM potassium phosphate, read-out: IC50 (μM) 5 mM K3 PO4 -2
# T1 sequence (Q02293 whole entry, one chain of several): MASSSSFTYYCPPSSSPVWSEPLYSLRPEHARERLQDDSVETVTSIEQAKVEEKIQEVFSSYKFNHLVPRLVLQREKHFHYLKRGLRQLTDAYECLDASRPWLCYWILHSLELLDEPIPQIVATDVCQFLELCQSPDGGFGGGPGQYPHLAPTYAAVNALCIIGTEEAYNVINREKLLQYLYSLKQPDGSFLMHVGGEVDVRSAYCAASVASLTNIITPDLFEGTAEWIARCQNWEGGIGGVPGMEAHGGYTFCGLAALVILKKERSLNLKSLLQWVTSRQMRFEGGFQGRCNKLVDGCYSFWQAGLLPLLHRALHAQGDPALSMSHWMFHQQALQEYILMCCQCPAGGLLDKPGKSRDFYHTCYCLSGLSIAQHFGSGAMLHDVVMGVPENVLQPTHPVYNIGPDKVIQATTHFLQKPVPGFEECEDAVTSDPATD
SMILES,minimal effective concentration [1],"IC50 [2, 4]","IC50 [2, 5]",IC50 [3]
"CN(Cc1ccccc1)C(=O)N[C@@H](Cc1c[nH]cn1)C(=O)N(CC(=O)NCC(C)(C)c1ccccc1)Cc1ccc(OCc2ccccc2)cc1 [Example 41, (S)-2-(3-Benzyl-3-methyl-ureido)-N-(4-benzyloxy-benzyl)-3-(1H-imidazole-4-yl)-N-[(2-methyl-2-phenyl-propylcarbamoyl)-methyl]-propionamide]",0.05 µM,0.009 µM,0.004 µM,40 nM
"O=C(CN(Cc1ccc(OCc2ccccc2)cc1)C(=O)[C@H](Cc1cnc[nH]1)NC(=O)OCc1ccccc1)NCC(O)c1ccccc1 (stereo partly drawn) [Example 14, (S)-[1-{(4-Benzyloxy-benzyl)-[(2-hydroxy-2-phenyl-ethylcarbamoyl)-methyl]-carbamoyl}-2-(3H-imidazole-4-yl)-ethyl]-carbamic Acid Benzyl Ester]",0.05 µM,1.6 µM,0.066 µM,> 1000 nM
"CC(C)(CNC(=O)CN(Cc1ccc(Cl)cc1)C(=O)[C@H](Cc1c[nH]cn1)NC(=O)OCc1ccccc1)c1ccccc1 [Example 31, (S)-[1-{(4-Chloro-benzyl)-[(2-methyl-2-phenyl-propylcarbamoyl)-methyl]-carbamoyl}-2-(1H-imidazole-4-yl)-ethyl]-carbamic Acid Benzyl Ester]",0.1 µM,0.52 µM,0.014 µM,> 1000 nM
"CC(CNC(=O)CN(Cc1cccc(Cl)c1)C(=O)[C@H](Cc1c[nH]cn1)NC(=O)OCc1ccccc1)c1ccccc1 (stereo partly drawn) [Example 30, (S)-[1-{(3-Chloro-benzyl)-[(2-phenyl-propylcarbamoyl)-methyl]-carbamoyl}-2-(1H-imidazole-4-yl)-ethyl]-carbamic Acid Benzyl Ester]",0.1 µM,0.78 µM,0.016 µM,> 1000 nM
"O=C(CN(Cc1ccc(OCc2ccccc2)cc1)C(=O)[C@H](Cc1c[nH]cn1)NC(=O)OCc1ccccc1)NCCc1ccccn1 [Example 8, (S)-[1-{(4-Benzyloxy-benzyl)-[(2-pyridin-2-yl-ethylcarbamoyl)-methyl]-carbamoyl]-2-(1H-imidazole-4-yl)-ethyl]-carbamic Acid Benzyl Ester]",0.2 µM,7.8 µM,0.3 µM,> 1000 nM
"CC(CNC(=O)CN(Cc1ccc(F)cc1)C(=O)[C@H](Cc1c[nH]cn1)NC(=O)OCc1ccccc1)c1ccccc1 (stereo partly drawn) [Example 18, (S)-[1-{(4-Fluoro-benzyl)-[(2-phenyl-propylcarbamoyl)-methyl]-carbamoyl}-2-(1H-imidazole-4-yl)-ethyl]-carbamic Acid Benzyl Ester]",0.2 µM,2.8 µM,0.061 µM,> 1000 nM
"CC(CNC(=O)CN(Cc1ccc(Cl)cc1)C(=O)[C@H](Cc1c[nH]cn1)NC(=O)OCc1ccccc1)c1ccccc1 (stereo partly drawn) [Example 13, (S)-[1-{(4-Chloro-benzyl)-[(2-phenyl-propylcarbamoyl)-methyl]-carbamoyl}-2-(1H-imidazole-4-yl)-ethyl]-carbamic Acid Benzyl Ester]",0.2 µM,1.4 µM,0.022 µM,> 1000 nM
"COc1ccc(CN(CC(=O)NCC(C)(C)c2ccccc2)C(=O)[C@H](Cc2c[nH]cn2)NC(=O)OCc2ccccc2)cc1 [Example 44, (S)-(2-(1H-Imidazole-4-yl)-1-{(4-methoxy-benzyl)-[(2-methyl-2-phenyl-propylcarbamoyl)-methyl]-carbamoyl}-ethyl)-carbamic Acid Benzyl Ester]",0.02 µM,0.3 µM,0.002 µM,360 nM
"CC(C)(CNC(=O)CN(Cc1ccc(OCc2ccncc2)cc1)C(=O)[C@H](Cc1c[nH]cn1)NC(=O)OCc1ccccc1)c1ccccc1 [Example 49, (S)-(2-(1H-Imidazole-4-yl)-1-{[(2-methyl-2-phenyl-propylcarbamoyl)-methyl]-[4-(pyridin-4-ylmethoxy)-benzyl]-carbamoyl}-ethyl)-carbamic Acid Benzyl Ester]",0.05 µM,0.06 µM,0.009 µM,100 nM
"CC(CNC(=O)CN(Cc1ccc(-c2ccccc2)cc1)C(=O)[C@H](Cc1c[nH]cn1)NC(=O)OCc1ccccc1)c1ccccc1 (stereo partly drawn) [Example 51, (S)-[1-{Biphenyl-4-ylmethyl-[(2-phenyl-propylcarbamoyl)-methyl]-carbamoyl}-2-(1H-imidazole-4-yl)-ethyl]-carbamic Acid Benzyl Ester]",≥ 0.05 µM,0.88 µM,0.004 µM,250 nM
"CC(CNC(=O)CN(Cc1ccc(OCc2cccnc2)cc1)C(=O)[C@H](Cc1c[nH]cn1)NC(=O)OCc1ccccc1)c1ccccc1 (stereo partly drawn) [Example 36, (S)-(2-(1H-Imidazole-4-yl)-1-{[(2-phenyl-propylcarbamoyl)-methyl]-[4-(pyridin-3-ylmethoxy)-benzyl]-carbamoyl}-ethyl)-carbamic Acid Benzyl Ester]",≥ 0.05 µM,0.45 µM,0.007 µM,320 nM
"Cc1cccc(CN(CC(=O)NCC(C)c2ccccc2)C(=O)[C@H](Cc2c[nH]cn2)NC(=O)OCc2ccccc2)c1 (stereo partly drawn) [Example 47, (S)-(2-(1H-Imidazole-4-yl)-1-{(3-methyl-benzyl)-[(2-phenyl-propylcarbamoyl)-methyl]-carbamoyl}-ethyl)-carbamic Acid Benzyl Ester]",0.05 µM,0.62 µM,0.035 µM,730 nM
"CC(CNC(=O)CN(Cc1ccc(C(F)(F)F)cc1)C(=O)[C@H](Cc1c[nH]cn1)NC(=O)OCc1ccccc1)c1ccccc1 (stereo partly drawn) [Example 38, (S)-{2-(1H-Imidazole-4-yl)-1-[[(2-phenyl-propylcarbamoyl)-methyl]-(4-trifluoromethyl-benzyl)-carbamoyl]-ethyl}-carbamic Acid Benzyl Ester]",0.2 µM,1.6 µM,0.013 µM,220 nM
"COc1ccccc1CN(CC(=O)NCC(C)c1ccccc1)C(=O)[C@H](Cc1c[nH]cn1)NC(=O)OCc1ccccc1 (stereo partly drawn) [Example 33, (S)-(2-(1H-Imidazole-4-yl)-1-{(2-methoxy-benzyl)-[(2-phenyl-propylcarbamoyl)-methyl]-carbamoyl}-ethyl)-carbamic Acid Benzyl Ester]",0.05 µM,0.5 µM,0.009 µM,360 nM
